Data set [1] in a line: Solubility of the compound at pH 6.5. Format: physicochemical. The conditions noted are these: buffer.
A short description of data set [2]: Solubility of the compound at pH 7.4. The format is physicochemical. To be noted: buffer.
Data set [3] addresses T1, Serine/threonine-protein kinase B-raf (Homo sapiens, UniProt P15056, V600E). Briefly: Inhibition of full-length B-Raf V600E mutant.
In data set [4] the target is T1, Serine/threonine-protein kinase B-raf. Kind of data set: Inhibition of B-Raf V600E mutant-mediated Erk phosphorylation in human MALME-3M cells. Format: cell-based.

In brackets after ≈: the same amount, converted by molar mass.

T1 sequence (P15056 2-766 V600E limits assumed): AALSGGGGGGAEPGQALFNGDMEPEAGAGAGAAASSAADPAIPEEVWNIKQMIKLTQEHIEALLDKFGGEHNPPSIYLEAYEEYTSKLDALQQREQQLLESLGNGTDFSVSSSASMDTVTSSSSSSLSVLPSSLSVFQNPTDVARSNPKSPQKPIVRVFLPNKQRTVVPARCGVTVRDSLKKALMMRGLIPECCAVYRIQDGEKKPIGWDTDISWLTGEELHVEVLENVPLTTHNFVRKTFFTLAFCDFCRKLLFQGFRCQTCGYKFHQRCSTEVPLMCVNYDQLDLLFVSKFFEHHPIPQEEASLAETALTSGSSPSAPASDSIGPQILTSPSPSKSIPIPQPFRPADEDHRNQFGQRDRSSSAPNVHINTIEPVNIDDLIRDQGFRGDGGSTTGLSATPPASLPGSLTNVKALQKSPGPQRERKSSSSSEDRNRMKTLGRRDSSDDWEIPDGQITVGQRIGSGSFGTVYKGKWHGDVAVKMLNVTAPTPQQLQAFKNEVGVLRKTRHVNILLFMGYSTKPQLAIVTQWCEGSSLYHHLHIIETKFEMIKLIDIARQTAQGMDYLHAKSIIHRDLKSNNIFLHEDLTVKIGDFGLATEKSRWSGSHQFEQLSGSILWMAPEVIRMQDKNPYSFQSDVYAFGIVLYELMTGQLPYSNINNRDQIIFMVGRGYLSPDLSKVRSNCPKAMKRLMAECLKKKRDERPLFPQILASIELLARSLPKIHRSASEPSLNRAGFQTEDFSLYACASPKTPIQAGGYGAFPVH

In the case of `CCCS(=O)(=O)Nc1ccc(F)c(C(=O)Nc2cnc3[nH]nc(OC)c3c2)c1F`, the solubility (commonly the concentration that dissolves in the medium under given conditions) was 4 µg/mL (≈ 9.4 µM) in data set [1] and 9 µg/mL (≈ 21.2 µM) in data set [2].

With `CCCS(=O)(=O)Nc1ccc(Cl)c(C(=O)Nc2cnc3[nH]nc(OC)c3c2)c1F`, the solubility in data set [1] is below 1 µg/mL; in data set [2] it was 2 µg/mL (≈ 4.53 µM).

On to `CCCS(=O)(=O)Nc1ccc(F)c(C(=O)Nc2cnc3[nH]nc(OC)c3c2)c1Cl`, for which the values for the IC50 in data set [3] and in data set [4] were 2.2 nM and 19 nM, respectively. Further, the figures for the solubility in data set [1] and in data set [2] were below 1 µg/mL and 2 µg/mL (≈ 4.53 µM), respectively.

Take `CCCS(=O)(=O)Nc1ccc(F)c(C(=O)Nc2cnc3[nH]nc(C(C)C)c3c2)c1F`: the IC50 (usually the point on the concentration scale where inhibition reaches its midpoint) in data set [3] stood at 14 nM; in data set [4], 89 nM. In addition, the solubility in data set [1] is 6 µg/mL (≈ 13.7 µM).

On to `CCCS(=O)(=O)Nc1ccc(F)c(C(=O)Nc2cnc3[nH]nc(C4CC4)c3c2)c1F`, for which the IC50 in data set [3] stood at 2.7 nM; in data set [4], 23 nM. Also, the solubility in data set [1] worked out at 1 µg/mL (≈ 2.3 µM); in data set [2] it was 4 µg/mL (≈ 9.19 µM).

`CCCS(=O)(=O)Nc1ccc(F)c(C(=O)Nc2cnc3[nH]nc(C4CC4)c3c2)c1Cl`: the IC50 in data set [3] is 3.8 nM; in data set [4] it was 33 nM. Moreover, the solubility in data set [1] amounted to 54 µg/mL (≈ 119 µM); in data set [2] it was 127 µg/mL (≈ 281 µM).

`CC(C)CS(=O)(=O)Nc1ccc(F)c(C(=O)Nc2cnc3[nH]nc(C4CC4)c3c2)c1Cl`: the IC50 in data set [3] turned out to be 2 nM; in data set [4] it was 18 nM. Further, the solubility in data set [1] is 1 µg/mL (≈ 2.15 µM); in data set [2] it was below 1 µg/mL.

`O=C(Nc1cnc2[nH]nc(C3CC3)c2c1)c1c(F)ccc(NS(=O)(=O)CCCF)c1Cl`: the results for the IC50 in data set [3] and in data set [4] were 0.6 nM and 51 nM, respectively. Further, the solubility in data set [1] came to 130 µg/mL (≈ 277 µM); in data set [2], 265 µg/mL (≈ 564 µM).

(Values after ChEMBL document CHEMBL1938390, “Pyrazolopyridine inhibitors of B-Raf(V600E). Part 3: an increase in aqueous solubility via the disruption of crystal packing” (Bioorg Med Chem Lett, 2012).)
